Measured values from doi:10.1101/208439v1 (biorxiv, 2017).
Read-outs that look alike come from different tables or passages of the source. Values belong to the compound of their own block, whether it stands above or below them.

How the values were obtained:
PRMT7 = PRMT7 (Homo sapiens, UniProt Q9NVM4); experiment: biochemical
NSD3 = target: T1, NSD3 (Homo sapiens, UniProt Q9BZ95); experiment: biochemical
T1 sequence (Q9BZ95 1021-1322): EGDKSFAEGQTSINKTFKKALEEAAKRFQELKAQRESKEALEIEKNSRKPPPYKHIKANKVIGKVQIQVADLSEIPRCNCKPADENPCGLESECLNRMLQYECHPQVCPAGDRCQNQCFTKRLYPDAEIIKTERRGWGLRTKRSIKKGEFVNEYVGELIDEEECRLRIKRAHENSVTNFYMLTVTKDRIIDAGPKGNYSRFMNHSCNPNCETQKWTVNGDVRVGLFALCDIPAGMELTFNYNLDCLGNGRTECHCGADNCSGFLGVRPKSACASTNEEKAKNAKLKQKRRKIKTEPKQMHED

NSD2 SET domain [1] = target: T2, NSD2 SET domain (Homo sapiens, UniProt O96028); experiment: biochemical; design: Surface plasmon resonance binding to NSD2 SET domain
T2 construct: SET domain, residues 934-1241, N-terminal His tag, E. coli
T2 sequence (O96028 934-1241): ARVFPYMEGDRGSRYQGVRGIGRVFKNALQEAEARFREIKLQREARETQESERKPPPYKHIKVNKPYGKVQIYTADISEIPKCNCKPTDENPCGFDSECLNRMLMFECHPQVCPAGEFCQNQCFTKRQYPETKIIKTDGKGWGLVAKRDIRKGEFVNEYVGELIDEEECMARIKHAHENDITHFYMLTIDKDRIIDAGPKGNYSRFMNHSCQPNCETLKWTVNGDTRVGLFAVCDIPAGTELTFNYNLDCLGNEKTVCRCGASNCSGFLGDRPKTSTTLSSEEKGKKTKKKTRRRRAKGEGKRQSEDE
Description: To support an on-target mechanism of action for the five inhibitors, surface plasmon resonance (SPR) was used to determine whether each inhibitor interacts with the catalytic SET domain of NSD2. […] Chaetocin bound the SET domain with an apparent dissociation constant of 20 nM. Additionally, the data indicated super-stoichiometric binding, which might be due to a binding ratio higher than 1:1 that is consistent with chaetocin’s two disulfide moieties forming adducts with the NSD2 protein, or compound aggregation (data not shown) ([56]).

ASH1L = ASH1L (Homo sapiens, UniProt Q9NR48); details: inhibitor; read-out: Control IC50 (µM), Chaetocin
GLP = target: T3, GLP (Homo sapiens, UniProt Q9H9B1); experiment: biochemical
T3 construct: gene EHMT1
T3 sequence (Q9H9B1 1-1298): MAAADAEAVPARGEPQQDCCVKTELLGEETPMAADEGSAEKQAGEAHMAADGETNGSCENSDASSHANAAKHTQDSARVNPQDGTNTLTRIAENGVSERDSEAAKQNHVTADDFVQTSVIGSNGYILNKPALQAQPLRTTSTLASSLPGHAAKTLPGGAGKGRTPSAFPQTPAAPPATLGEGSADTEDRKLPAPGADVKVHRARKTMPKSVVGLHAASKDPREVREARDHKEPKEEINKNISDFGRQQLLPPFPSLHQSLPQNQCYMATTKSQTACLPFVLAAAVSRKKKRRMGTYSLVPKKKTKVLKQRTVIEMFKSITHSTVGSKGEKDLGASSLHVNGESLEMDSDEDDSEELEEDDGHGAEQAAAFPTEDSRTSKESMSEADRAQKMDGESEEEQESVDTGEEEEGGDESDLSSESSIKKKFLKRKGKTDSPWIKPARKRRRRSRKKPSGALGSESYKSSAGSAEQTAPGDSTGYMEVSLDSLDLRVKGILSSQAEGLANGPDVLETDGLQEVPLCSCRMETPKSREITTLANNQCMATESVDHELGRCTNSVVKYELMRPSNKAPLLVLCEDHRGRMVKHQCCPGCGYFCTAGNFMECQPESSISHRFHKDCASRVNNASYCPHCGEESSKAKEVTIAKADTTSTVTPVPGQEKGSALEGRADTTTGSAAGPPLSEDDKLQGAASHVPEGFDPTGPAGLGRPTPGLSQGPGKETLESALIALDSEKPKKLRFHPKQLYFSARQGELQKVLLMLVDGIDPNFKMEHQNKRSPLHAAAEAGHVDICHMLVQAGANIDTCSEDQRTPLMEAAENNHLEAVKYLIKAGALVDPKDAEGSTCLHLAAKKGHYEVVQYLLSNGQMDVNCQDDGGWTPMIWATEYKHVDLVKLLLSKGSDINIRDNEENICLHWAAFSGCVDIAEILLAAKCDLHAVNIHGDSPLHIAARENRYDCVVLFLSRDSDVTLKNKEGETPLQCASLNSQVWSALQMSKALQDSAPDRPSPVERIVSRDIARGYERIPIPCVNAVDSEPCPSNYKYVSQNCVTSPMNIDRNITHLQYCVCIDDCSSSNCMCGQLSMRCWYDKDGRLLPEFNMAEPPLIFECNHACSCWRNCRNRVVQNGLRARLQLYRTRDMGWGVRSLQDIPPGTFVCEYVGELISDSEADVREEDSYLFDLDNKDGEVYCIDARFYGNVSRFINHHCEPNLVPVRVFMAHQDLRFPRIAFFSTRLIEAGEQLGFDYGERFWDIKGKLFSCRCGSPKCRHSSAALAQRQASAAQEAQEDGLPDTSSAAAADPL

SET8 = target: T4, SET8 (Homo sapiens, UniProt Q9NQR1); experiment: biochemical
T4 construct: gene KMT5A
T4 sequence (Q9NQR1 1-393): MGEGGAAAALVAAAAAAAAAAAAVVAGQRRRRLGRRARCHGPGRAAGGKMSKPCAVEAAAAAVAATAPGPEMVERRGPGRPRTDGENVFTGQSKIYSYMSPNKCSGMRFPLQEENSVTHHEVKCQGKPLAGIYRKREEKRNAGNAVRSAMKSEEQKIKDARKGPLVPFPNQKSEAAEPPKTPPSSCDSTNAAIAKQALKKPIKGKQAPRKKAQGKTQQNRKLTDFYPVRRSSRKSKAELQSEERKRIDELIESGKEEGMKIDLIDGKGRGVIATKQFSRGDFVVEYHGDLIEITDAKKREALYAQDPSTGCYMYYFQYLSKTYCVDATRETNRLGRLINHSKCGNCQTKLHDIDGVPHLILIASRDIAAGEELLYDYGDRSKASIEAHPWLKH

DNMT3b = target: T5, DNMT3b (Homo sapiens, UniProt Q9UBC3); experiment: HotSpot [3H]SAM filter-binding methyltransferase assay; format: biochemical
T5 construct: residues 2-853, N-terminal GST fusion, insect cell/baculovirus

NSD1 = target: T6, NSD1 (Homo sapiens, UniProt Q96L73); experiment: as above; format: biochemical
T6 construct: residues 1538-2696, N-terminal His tag, insect cell/baculovirus
T6 sequence (Q96L73 1538-2696): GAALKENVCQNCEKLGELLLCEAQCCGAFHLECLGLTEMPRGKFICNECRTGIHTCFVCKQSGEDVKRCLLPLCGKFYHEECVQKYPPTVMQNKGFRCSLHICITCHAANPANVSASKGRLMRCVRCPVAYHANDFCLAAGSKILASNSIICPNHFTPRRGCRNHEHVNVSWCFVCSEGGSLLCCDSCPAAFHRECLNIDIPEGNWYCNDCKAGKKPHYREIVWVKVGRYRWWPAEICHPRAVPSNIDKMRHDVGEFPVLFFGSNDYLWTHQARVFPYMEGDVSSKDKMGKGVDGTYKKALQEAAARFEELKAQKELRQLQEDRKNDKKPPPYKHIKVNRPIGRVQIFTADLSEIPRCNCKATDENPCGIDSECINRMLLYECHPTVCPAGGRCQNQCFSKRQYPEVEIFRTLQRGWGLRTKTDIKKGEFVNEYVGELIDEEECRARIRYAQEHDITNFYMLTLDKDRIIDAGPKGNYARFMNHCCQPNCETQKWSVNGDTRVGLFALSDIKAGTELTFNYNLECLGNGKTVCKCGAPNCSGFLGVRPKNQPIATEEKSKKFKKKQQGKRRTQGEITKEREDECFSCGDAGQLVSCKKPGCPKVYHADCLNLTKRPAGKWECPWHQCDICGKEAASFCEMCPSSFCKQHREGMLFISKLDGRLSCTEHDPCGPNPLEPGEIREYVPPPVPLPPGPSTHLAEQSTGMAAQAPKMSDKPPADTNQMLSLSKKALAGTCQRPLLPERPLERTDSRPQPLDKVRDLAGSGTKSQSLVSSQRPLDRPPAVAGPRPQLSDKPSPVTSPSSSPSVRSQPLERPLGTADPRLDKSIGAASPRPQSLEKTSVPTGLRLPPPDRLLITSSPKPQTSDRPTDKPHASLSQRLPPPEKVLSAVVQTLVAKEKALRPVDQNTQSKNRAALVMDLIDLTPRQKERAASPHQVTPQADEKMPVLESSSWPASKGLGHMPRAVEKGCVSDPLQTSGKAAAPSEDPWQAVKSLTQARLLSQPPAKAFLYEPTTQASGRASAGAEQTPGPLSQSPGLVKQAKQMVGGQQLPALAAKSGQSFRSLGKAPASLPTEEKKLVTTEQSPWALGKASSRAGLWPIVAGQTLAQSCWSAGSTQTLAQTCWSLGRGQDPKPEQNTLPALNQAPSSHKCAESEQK

NSD2 SET domain [2] = target: T2, NSD2 SET domain; experiment: SPR Biacore 8K, single-cycle kinetics, […] model; format: binding
[3] = apparent, super-stoichiometric binding, binder

PRMT7, sequence (Q9NVM4 whole entry): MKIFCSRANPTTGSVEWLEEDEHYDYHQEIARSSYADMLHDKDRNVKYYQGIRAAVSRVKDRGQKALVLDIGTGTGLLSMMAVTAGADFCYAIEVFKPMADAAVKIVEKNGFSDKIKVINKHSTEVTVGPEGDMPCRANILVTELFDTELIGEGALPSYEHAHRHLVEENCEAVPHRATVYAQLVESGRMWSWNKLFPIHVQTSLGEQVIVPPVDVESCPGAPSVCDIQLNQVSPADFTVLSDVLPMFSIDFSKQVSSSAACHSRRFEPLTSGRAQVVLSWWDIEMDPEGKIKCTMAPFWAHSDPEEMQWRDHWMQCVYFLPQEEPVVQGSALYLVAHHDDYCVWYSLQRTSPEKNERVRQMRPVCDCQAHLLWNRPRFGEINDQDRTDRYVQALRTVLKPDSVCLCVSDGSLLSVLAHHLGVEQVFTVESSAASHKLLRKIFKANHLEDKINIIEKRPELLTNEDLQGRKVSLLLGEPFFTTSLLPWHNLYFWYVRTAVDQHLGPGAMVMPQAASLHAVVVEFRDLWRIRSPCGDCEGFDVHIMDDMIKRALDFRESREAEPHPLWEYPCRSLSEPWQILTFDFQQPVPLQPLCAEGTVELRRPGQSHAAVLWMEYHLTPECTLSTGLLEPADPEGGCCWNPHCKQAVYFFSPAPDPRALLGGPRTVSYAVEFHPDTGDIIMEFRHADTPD

SMILES: CN1C(=O)[C@@]23C[C@]4([C@]56C[C@@]78SS[C@@](CO)(C(=O)N7[C@H]5Nc5ccccc56)N(C)C8=O)c5ccccc5N[C@@H]4N2C(=O)[C@]1(CO)SS3 [Chaetocin]
- IC50 (PRMT7): 156000 nM
- IC50 (NSD3): 90 nM
- Kd (NSD2 SET domain [1]; apparent, super-stoichiometric binding): 20 nM
- koff (NSD2 SET domain [1]; [3]): 4.59e-05 s⁻¹
- kon (NSD2 SET domain [1]; [3]): 2210 M⁻¹ s⁻¹
- IC50 (ASH1L): 0.1 µM
- IC50 (GLP): 77000 nM

- IC50 (SET8): 950 nM
SMILES: Cc1ccc(NC2=CC(=O)c3sc(C)nc3C2=O)cc1 [Ryuvidine]

- IC50 (DNMT3b): 65 nM
- IC50 (NSD1): 9700 nM
SMILES: Nc1ncnc2c1ncn2[C@@H]1O[C@H](CSCC[C@H](N)C(=O)O)[C@@H](O)[C@H]1O [SAH, reference compound]

- Kd (NSD2 SET domain [2]): 4200 nM
- koff (NSD2 SET domain [1]; read-out: koff): 0.017 s⁻¹
- kon (NSD2 SET domain [1]; read-out: kon): 4060 M⁻¹ s⁻¹
SMILES: C[S+](CC[C@H](N)C(=O)O)C[C@H]1O[C@@H](n2cnc3c(N)ncnc32)[C@H](O)[C@@H]1O (stereo partly shown) [SAM]
